For experiment [1], the target named is T1, helicase domain of the Pol θ protein (Homo sapiens, UniProt O75417).
T1 construct: The helicase domain of the Pol θ protein was purified from insect protein expression system; made in house; host or cells: insect protein expression system
Description: Biochemical Activity Assay (ADP Glo Assay) of Pol θ inhibitor, ATPase activity. (ADP-Glo first removes unused ATP, then detects ADP through luciferase.)

A short description of experiment [2]: cells. To be noted: Homo sapiens, DLD-1, 240 h.
[3] abbreviates: ADP-Glo assay, ATPase activity of Pol θ helicase domain, ssDNA substrate, read-out: Biochemical assay IC50.
Where [4] appears, read: read-out: Cell viability assay IC50 (nM), CTG assay, CellTiter Glo, read on Day 10, cell line not given.
Where [5] appears, read: read-out: Cell viability assay IC50 (nM).

Each structure is given as a SMILES string. Read-outs that look alike come from different tables or passages of the source.

T1 sequence (O75417 102-554 limits assumed): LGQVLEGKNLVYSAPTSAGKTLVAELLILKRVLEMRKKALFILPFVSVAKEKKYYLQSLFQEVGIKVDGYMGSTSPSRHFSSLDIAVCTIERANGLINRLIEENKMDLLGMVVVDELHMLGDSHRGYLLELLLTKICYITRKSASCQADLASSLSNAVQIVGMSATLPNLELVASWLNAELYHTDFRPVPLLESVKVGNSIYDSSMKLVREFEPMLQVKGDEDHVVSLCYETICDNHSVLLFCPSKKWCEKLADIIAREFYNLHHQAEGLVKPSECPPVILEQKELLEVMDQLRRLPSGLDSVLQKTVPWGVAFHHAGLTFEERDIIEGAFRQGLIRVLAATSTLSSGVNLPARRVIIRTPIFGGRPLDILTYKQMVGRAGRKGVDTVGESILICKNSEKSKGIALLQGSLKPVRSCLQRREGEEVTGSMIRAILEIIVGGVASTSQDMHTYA

As to `COc1cnc(Cl)cc1-c1cc(C)ncc1C(=O)Nc1nc2cnc(-c3c(F)cnn3C)cc2s1` [Example 154], the IC50 (commonly the concentration at which inhibition is half-maximal) in experiment [1] (setting [3]) was 2.36 nM; in experiment [2] (setting [4]) it was 17.8 nM.

As for `[2H]C([2H])([2H])Oc1cnc(Cl)cc1-c1cc(C)ncc1C(=O)Nc1nc2cnc(-c3c(C)cnn3C)cc2s1` [Example 156], the IC50 in experiment [1] (setting [3]) was 2.75 nM; in experiment [2] (setting [4]), 5.62 nM.

As to `COc1cnc(Cl)cc1-c1cc(C)ncc1C(=O)Nc1nc2cnc(-c3c(C)cnn3C)nc2s1` [Example 157], the IC50 in experiment [1] (setting [3]) came out at 5.08 nM; in experiment [2] (setting [4]), 32.9 nM.

Take `COc1cnc(Cl)cc1-c1cc(C)ncc1C(=O)Nc1nc2cnc(-c3c(C)nn4ccccc34)cc2s1` [Example 158]: the IC50 in experiment [1] (setting [3]) came to 6.31 nM; in experiment [2] (setting [4]), 4.64 nM.

Regarding `COc1cnc(Cl)cc1-c1cc(C)ncc1C(=O)Nc1nc2nnc(-c3c(C)cnn3C)cc2s1` [Example 159], the IC50 came to 2.75 nM in experiment [1] (setting [3]) and 1170 nM in experiment [2] (setting [4]).

For the molecule `COc1cnc(Cl)cc1-c1cc(C)ncc1C(=O)Nc1nc2ncc(-c3c(C)cnn3C)nc2s1` [Example 160], the IC50 in experiment [1] (setting [3]) came to 5.75 nM; in experiment [2] (setting [4]), 82.5 nM.

`COc1cnc(Cl)cc1-c1cc(C)ncc1C(=O)Nc1nc2cnc(-c3[nH]ncc3C)cc2s1` [Example 161]: the IC50 amounted to 3.41 nM in experiment [1] (setting [3]) and 121 nM in experiment [2] (setting [4]).

As for `COC(=O)c1cc(-c2c(C)cnn2C)cc2sc(NC(=O)c3cnc(C)cc3-c3cc(Cl)ncc3OC)nc12` [Example 162], the IC50 in experiment [1] (setting [3]) came to 63.1 nM; in experiment [2] (setting [4]), 233 nM.

With `COc1cnc(Cl)cc1-c1cc(C)ncc1C(=O)Nc1nc2cnc(-c3c(C)nn(C)c3C)cc2s1` [Example 163], the IC50 in experiment [1] (setting [3]) is 2.51 nM; in experiment [2] (setting [4]) it was 3.41 nM.

As for `COc1cnc(Cl)cc1-c1cc(C)ncc1C(=O)Nc1nc2c(C(N)=O)cc(-c3c(C)cnn3C)cc2s1` [Example 165], the IC50 amounted to 16.9 nM in experiment [1] (setting [3]) and 446 nM in experiment [2] (setting [4]).

With `COc1cnc(Cl)cc1-c1cc(C)ncc1C(=O)Nc1nc2c(C#N)cc(-c3c(C)cnn3C)cc2s1` [Example 166], the IC50 in experiment [1] (setting [3]) was 25.1 nM; in experiment [2] (setting [4]) it was 68.1 nM.

For the molecule `COc1cnc(Cl)cc1-c1cc(C)ncc1C(=O)Nc1nc2cnc(-c3c(Cl)cnn3C)cc2s1` [Example 167], the results for the IC50 in experiment [1] (setting [3]) and in experiment [2] (setting [4]) were 3.74 nM and 5.41 nM, respectively.

`COc1cnc(Cl)cc1-c1cc(C)ncc1C(=O)Nc1nc2cnc(-c3c(C#N)cnn3C)cc2s1` [Example 169]: the IC50 in experiment [1] (setting [3]) is 8.84 nM; in experiment [2] (setting [4]), 89.1 nM.

In the case of `COc1cnc(Cl)cc1-c1cc(C)ncc1C(=O)Nc1nc2c(CO)cc(-c3c(C)cnn3C)cc2s1` [Example 170], the results for the IC50 in experiment [1] (setting [3]) and in experiment [2] (setting [4]) were 7.13 nM and 825 nM, respectively.

On to `COc1cnc(Cl)cc1-c1cc(C)ncc1C(=O)Nc1nc2cnc(-c3cncn3C)cc2s1` [Example 171], for which the figures for the IC50 in experiment [1] (setting [3]) and in experiment [2] (setting [4]) were 4.93 nM and 13.1 nM, respectively.

For `[2H]C([2H])([2H])c1cnn(C)c1-c1cc2sc(NC(=O)c3cnc(C)cc3-c3cc(Cl)ncc3OC)nc2cn1` [Example 176, 2'-chloro-5'-methoxy-6-methyl-N-(6-(1-methyl-4-(methyl-d3)-1H-pyrazol-5-yl)thiazolo [4,5-c]pyridin-2-yl)-[4,4'-bipyridine]-3-carboxamide], the IC50 in experiment [1] (setting [3]) turned out to be 4.64 nM; in experiment [2] (setting [4]), 4.29 nM.

Take `COc1cnc(Cl)cc1-c1cc(C)ncc1C(=O)Nc1nc2nc(OC)c(-c3c(C)cnn3C)cc2s1` [Example 177, 2'-chloro-N-(6-(1,4-dimethyl-1H-parazol-5-yl)-5-methoxythiazolo[4,5-b]pyridin-2-yl)-5' -methoxy-6-methyl-[4,4'-bipyridine]-3-carboxamide]: the results for the half-maximal inhibitory concentration (IC50) in experiment [1] (Biochemical assay IC50 (nM)) and in experiment [2] (setting [5]) were 13.6 nM and 121 nM, respectively.

Take `COc1cnc(Cl)cc1-c1cc(C)ncc1C(=O)Nc1nc2[nH]c(=O)c(-c3c(C)cnn3C)cc2s1` [Example 178, 2'-chloro-N-(6-(1,4-dimethyl-1H-parazol-5-yl)-5-oxo-4,5-dihydrothiazolo[4,5-b]pyridin-2-yl)-5'-methoxvy-6-methyl-[4,4'-bipyridine]-3-carboxamide]: the values for the IC50 in experiment [1] (Biochemical assay IC50 (nM)) and in experiment [2] (setting [5]) were 1.63 nM and 35.5 nM, respectively.

For the molecule `COc1cnc(Cl)cc1-c1cc(C)ncc1C(=O)Nc1nc2c(=O)[nH]c(-c3c(C)cnn3C)cc2s1` [Example 179, 2'-chloro-N-(6-(1,4-dimethyl-1H-parazol-5-yl)-4-oxo-4,5-dihydrothiazolo[4,5-c]pyridin-2-yl)-5'-methoxy-6-methyl-[4,4'-bipyridine]-3-carboxamide], the IC50 amounted to 2.43 nM in experiment [1] (Biochemical assay IC50 (nM)) and 562 nM in experiment [2] (setting [5]).

For the molecule `COc1cnc(Cl)cc1-c1cc(C)ncc1C(=O)Nc1nc2ncc(C3COCCO3)cc2s1` (stereo not shown) [Example 182, N-(6-(1,4-dioxan-2-yl)thiazolo[4,5-b]pyridin-2-yl)-2'-chloro-5'-methoxy-6-methyl-[4,4'-bipyridine]-3-carboxamide], the concentration for half-maximal inhibition (IC50) worked out at 2.08 nM in experiment [1] (setting [3]) and 39.8 nM in experiment [2] (setting [4]).

In the case of `COc1cnc(Cl)cc1-c1cc(C)ncc1C(=O)Nc1nc2nnc(C3=CCC(O)CC3)cc2s1` (stereo not shown) [Example 183, 2'-chloro-N-(3-(4-hydroxycyclohexyl-1-en-1-yl)thiazolo[4,5-c]pyridazin-6-yl)-5'-methox y-6-methyl-[4,4'-bipyridine]-3-carboxamide], the IC50 in experiment [1] (Biochemical assay IC50 (nM)) stood at 3.41 nM; in experiment [2] (setting [5]) it was 1260 nM.

On to `COc1cnc(Cl)cc1-c1cc(C)ncc1C(=O)Nc1nc2ncc(C3=CCC4(CC3)CN(C(C)=O)C4)cc2s1` [Example 184], for which the IC50 in experiment [1] (setting [3]) was 15.2 nM; in experiment [2] (setting [4]), 482 nM.

For the molecule `COc1cnc(Cl)cc1-c1cc(C)ncc1C(=O)Nc1nc2cnc(C3=CCC4(CC3)CN(C(C)=O)C4)cc2s1` [Example 185], the IC50 was 8.94 nM in experiment [1] (setting [3]) and 35.9 nM in experiment [2] (setting [4]).

With `CCP(=O)(CC)c1ccc(-c2cnc3nc(NC(=O)c4cnc(C)cc4-c4cc(Cl)ncc4OC)sc3c2)cc1` [Example 186], the IC50 in experiment [1] (Biochemical assay IC50 (nM)) was 5.58 nM; in experiment [2] (setting [5]) it was 1520 nM.

On to `CCP(=O)(CC)c1ccc(-c2ccc3nc(NC(=O)c4cnc(C)cc4-c4cc(Cl)ncc4OC)sc3c2)cc1` [Example 187], for which the IC50 in experiment [1] (Biochemical assay IC50 (nM)) turned out to be 8.75 nM; in experiment [2] (setting [5]) it was 271 nM.

In the case of `COc1cnc(Cl)cc1-c1cc(C)ncc1C(=O)Nc1nc2cnc(-c3ccc(S(F)(F)(F)(F)F)cc3)cc2s1` [Example 188], the IC50 in experiment [1] (setting [3]) is 36.7 nM; in experiment [2] (setting [4]) it was less than 1.52 nM.

With `CCP(=O)(CC)c1ccc(-c2cc3sc(NC(=O)c4cnc(C)cc4-c4cc(Cl)ncc4OC)nc3cc2F)cc1` [Example 189], the IC50 in experiment [1] (setting [3]) was 8.06 nM; in experiment [2] (setting [4]), 12.9 nM.

In the case of `COc1cnc(Cl)cc1-c1cc(C)ncc1C(=O)Nc1nc2cc(F)c(-c3ccc(P4(=O)CCCC4)cc3)cc2s1` [Example 190], the figures for the IC50 in experiment [1] (setting [3]) and in experiment [2] (setting [4]) were 5.08 nM and 3.28 nM, respectively.

For `COc1cnc(Cl)cc1-c1cc(C)ncc1C(=O)Nc1nc2c(s1)CN(C(=O)c1ccccc1)CC2` [Example 191, N-(5-benzoyl-4.5.6,7-tetrahydrothiazolo[5.4]pyridin-2-yl)-2'-chloro-5'-methoxy-6-methyl-[4,4'-bipyridine]-3-carboxamide], the IC50 in experiment [1] (Biochemical assay IC50 (nM), ADP-Glo assay, ATPase activity of Pol θ helicase domain, ssDNA substrate) was 29.3 nM; in experiment [2] (setting [5]), 521 nM.

As for `COc1cnc(Cl)cc1-c1cc(C)ncc1C(=O)Nc1nc2c(s1)CN(Cc1ccncc1)CC2` [Example 192, 2'-chloro-5'-methoxy-6-methyl-N-(5-(pyridin-4-ylmethyl)-4,5,6,7-tetrahydrothiazolo[5,4-c]pyridin-2-yl)-[4,4'-bipyridine]-3-carboxamide], the figures for the half-inhibitory concentration (IC50) in experiment [1] (setting [3]) and in experiment [2] (setting [4]) were 103 nM and 4820 nM, respectively.

As to `COc1cnc(Cl)cc1-c1cc(C)ncc1C(=O)Nc1nc2cc3c(cc2s1)N(c1ccnn1C)CCO3` [Example 194, 2'-chloro-5'-methoxy-6-methyl-N-(8-(1-methyl-1H-parazol-5-yl)-7,8-dihydro-6H-thiazolo[5',4':4,5]benzo[1,2-b][1,4]oxazin-2-yl)-[4,4'-bipyridine]-3-carboxamide], the results for the IC50 in experiment [1] (Biochemical assay IC50 (nM)) and in experiment [2] (setting [5]) were 22.9 nM and 65.6 nM, respectively.

Consider `COc1cnc(Cl)cc1-c1cc(C)ncc1C(=O)Nc1nc2cnc(N3CCC(NS(C)(=O)=O)CC3)cc2s1` [Example 195], for which the IC50 in experiment [1] (Biochemical assay IC50 (nM)) is 6.18 nM; in experiment [2] (setting [5]), 34.2 nM.

Take `COc1cnc(Cl)cc1-c1cc(N2CCN(C)C3(CC3)C2=O)ncc1C(=O)Nc1nc2cnc(-c3c(C)nnn3C)cc2s1` [Example 196, 2'-chloro-N-(6-(1,4-dimethyl-1H-1,2,3-triazol-5-yl)thiazolo[4,5-c]pyridin-2-yl)-5'-methoxy-6-(4-methyl-8-oxo-4,7-diazaspiro[2.5]oct-7-yl)-[4,4'-bipyridine]-3-carboxamide]: the IC50 was found to be 11.7 nM in experiment [1] (setting [3]) and 3.83 nM in experiment [2] (setting [4]).

As to `COc1cnc(C(F)F)cc1-c1cc(C)ncc1C(=O)Nc1nc2cnc(N3CCC(O)CC3)nc2s1` [Example 198], the IC50 in experiment [1] (read-out: Biochemical assay IC50) turned out to be 4.23 nM; in experiment [2] (setting [5]) it was 23.3 nM.

`COc1cnc(C(F)F)cc1-c1cc(C)ncc1C(=O)Nc1nc2cnc(N3CC4(CC(O)C4)C3)nc2s1` [Example 199]: the IC50 in experiment [1] (setting [3]) amounted to 7.82 nM; in experiment [2] (setting [4]), 31.6 nM.

In the case of `COc1cnc(Cl)c(F)c1-c1cc(C)ncc1C(=O)Nc1nc2cnc(N3CCC(O)CC3)nc2s1` [Example 200], the IC50 came out at 6.51 nM in experiment [1] (setting [3]) and 7.07 nM in experiment [2] (setting [4]).

Take `COc1cnc(C(F)F)cc1-c1cc(C)ncc1C(=O)Nc1nc2cnc(N3CCCCC3=O)nc2s1` [Example 201, 2'-(difluoromethyl)-5'-methoxy-6-methyl-N-(5-(2-oxopiperidin-1-yl)thiazolo[5,4-d]pyrimidin-2-yl)-[4,4'-bipyridine]-3-carboxamide]: the IC50 came to 5.24 nM in experiment [1] (setting [3]) and 224 nM in experiment [2] (setting [4]).

For the molecule `COc1cnc(Cl)cc1-c1cc(C)ncc1C(=O)Nc1nc2ccc(N3CCOCC3=O)nc2s1` [Example 202], the IC50 was determined as 6.11 nM in experiment [1] (setting [3]) and 38.8 nM in experiment [2] (setting [4]).
